Data published in paper PMC12974487, “Inhibition of FicD-mediated AMPylation and deAMPylation by isoprenoid diphosphates” (Proceedings of the National Academy of Sciences of the …, 2026).
Residue numbers refer to the chain shown, from its start.

Experiments:
FicD^E234G = biological target: T1, FicD^E234G (Homo sapiens, UniProt Q9BVA6, E234G); assay: MIDAS metabolite screen, FicD^E234G; format: binding; conditions: cutoff Q < 0.05 and |Log2 corrected fold change| > 2, metabolites 5 µM
T1 construct: soluble ER luminal domain (residues 105 to 458) of wild-type human FicD and three mutants; 6xHis-Sumo (N, cleaved yes); made in house; host or cells: Rosetta(DE3) E. coli
T1 sequence (Q9BVA6 105-458 E234G): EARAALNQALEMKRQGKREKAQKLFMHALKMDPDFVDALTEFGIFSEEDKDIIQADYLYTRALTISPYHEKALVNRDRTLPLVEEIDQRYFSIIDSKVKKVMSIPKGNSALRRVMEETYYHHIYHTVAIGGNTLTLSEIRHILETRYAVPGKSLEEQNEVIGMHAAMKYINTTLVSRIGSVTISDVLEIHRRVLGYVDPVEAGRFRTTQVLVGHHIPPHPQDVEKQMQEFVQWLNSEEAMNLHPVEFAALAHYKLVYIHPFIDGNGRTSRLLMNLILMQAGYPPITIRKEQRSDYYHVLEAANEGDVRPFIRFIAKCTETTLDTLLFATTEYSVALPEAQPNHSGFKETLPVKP
From the text: To identify small-molecule metabolite interactions with FicD, we applied an unbiased high-throughput screening approach known as MIDAS ([44]).

FicD^WT [1] = biological target: T2, FicD^WT (Homo sapiens, UniProt Q9BVA6); set-up: method as in PMID 25435325; conditions: cited from earlier work
T2 construct: soluble ER luminal domain (residues 105 to 458) of wild-type human FicD; 6xHis-Sumo (N, cleaved yes); made in house; host or cells: Rosetta(DE3) E. coli
T2 sequence (Q9BVA6 105-458): T1 sequence (Q9BVA6 105-458 E234G) with G130E

FicD^WT [2] = biological target: T2, FicD^WT; assay: In vitro AMPylation of Δ26hBiP^T229A by FicD^WT (Western blot); format: biochemical; conditions: for inhibition of AMPylation of Δ26hBiP^T229A by FicD^WT: 100 μM metabolite, 500 μM ATP, 5 mM MgCl2; for concentration at which inhibition of AMPylation started: dose-response Western blot, FicD^WT
From the text: (§1) We next sought to assess the effects of FPP, GPP, and isoprenoid analogues on FicD activity. To accurately judge the effects of small molecules on FicD AMPylation activity, we used the ATPase defective BiP^T229A mutant as substrate ([22], [49], [50]). Loss of ATP hydrolysis by the BiP mutant ensures: 1. conformational homogeneity of the BiP protein substrate; 2. lack of BiP competition for the ATP substrate; and 3. no production of ADP, a competitive inhibitor for ATP. In addition, we deleted the first 25 amino acids of BiP for ease with its purification and solubility. […]
For AMPylation assays with FicD and BiP, Δ104FicDWT and Δ26hBiPT229A were combined at a ratio
of 1:80 in buffer containing 25mM HEPES pH 7.4, 100mM KCl, 5mM MgCl2, 500μM ATP, 1mM
DTT, and small molecule where indicated. Assays with Δ104FicDWT were incubated for 1 hour.
the amount of FicD as in reactions containing FicDWT and were incubated at 37C for 4.5 hours. […]

FicD^WT [3] = biological target: T2, FicD^WT; assay: In vitro deAMPylation of Δ26hBiP^T229A-AMP by FicD^WT (Western blot); format: biochemical; conditions: for inhibition of deAMPylation activity of FicD^WT: 100 μM metabolite, 5 mM MgCl2; for concentration at which inhibition of deAMPylation started: dose-response Western blot, FicD^WT
From the text: as §1
For deAMPylation assays with FicD and BiP, Δ26hBiPT229A was in-vitro AMPylated by […]
5mM MgCl2, 500uM ATP, 0.5% CHAPS, 1mM DTT. After one hour of incubation at 30-37C, the entire reaction mix was transferred into an Amicon 0.5mL 50kDa MWCO concentrator (cat no.
7.4/150mM NaCl/10% glycerol/1mM DTT was added to the concentrated AMPylation reaction and then spun down again at 14,000 x g at 4C for 5-10 minutes. This step was repeated four times to buffer exchange AMPylated Δ26hBiPT229A.
Δ104hFicDWT and Δ26hBiPT229A-AMP were combined at a ratio of 1:80 in buffer containing 25mM HEPES pH 7.4, 100mM KCl, 5mM MgCl2, 1mM DTT and the indicated small molecule where applicable. Reactions were incubated at 37C for 1 hour and stopped by the addition EDTA. 5X SDS sample buffer (250mM Tris pH 6.8, 10% Lithium dodecyl sulfate, 50% glycerol, 50mM DTT, 0.05% Bromophenol blue) was then added to the reactions and reactions were heated for 5 minutes at […]

BiP = biological target: T3, BiP (Homo sapiens, UniProt P11021, T229A); assay: DSF specificity control with BiP; format: binding; conditions: same increasing metabolite concentrations
T3 construct: BiPT229A (residues 27-654) was expressed as an 6xHis-Thrombin-T7 n-terminal fusion; 6xHis-Thrombin-T7 (N); made in house; host or cells: Rosetta(DE3) E. coli

[4] = substrate exceeds FPP by two to three orders of magnitude

T3 sequence (P11021 27-654 T229A): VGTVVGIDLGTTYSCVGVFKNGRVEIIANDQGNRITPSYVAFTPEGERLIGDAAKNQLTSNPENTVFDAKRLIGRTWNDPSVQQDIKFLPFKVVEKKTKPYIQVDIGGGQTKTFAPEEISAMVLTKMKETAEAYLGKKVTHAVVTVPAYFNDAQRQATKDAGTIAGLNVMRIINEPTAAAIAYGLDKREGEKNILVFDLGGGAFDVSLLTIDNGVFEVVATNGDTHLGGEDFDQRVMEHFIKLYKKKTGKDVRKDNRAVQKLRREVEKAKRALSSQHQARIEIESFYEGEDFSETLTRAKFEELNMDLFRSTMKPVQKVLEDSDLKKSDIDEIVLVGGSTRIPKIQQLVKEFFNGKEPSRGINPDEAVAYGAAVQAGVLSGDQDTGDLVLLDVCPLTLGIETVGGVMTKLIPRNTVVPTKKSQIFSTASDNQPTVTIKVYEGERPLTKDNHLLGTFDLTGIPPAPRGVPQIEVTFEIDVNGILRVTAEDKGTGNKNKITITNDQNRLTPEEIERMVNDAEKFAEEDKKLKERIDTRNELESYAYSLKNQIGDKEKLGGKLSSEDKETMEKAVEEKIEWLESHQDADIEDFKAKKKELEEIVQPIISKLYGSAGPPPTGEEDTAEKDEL

| Compound | MIDAS protein-metabolite interaction (enrichment/depletion) (FicD^E234G) | Kd (FicD^WT [1]) [nM] | inhibition of AMPylation of Δ26hBiP^T229A by FicD^WT (FicD^WT [2]) | concentration at which inhibition of AMPylation started (FicD^WT [2]) [µM] | apparent EC50 of inhibition of AMPylation (FicD^WT [2]; [4]) | inhibition of deAMPylation activity of FicD^WT (FicD^WT [3]) | concentration at which inhibition of deAMPylation started (FicD^WT [3]) [µM] | apparent EC50 of inhibition of deAMPylation (FicD^WT [3]; [4]) | change in melt curves or Tm of BiP (BiP) |
| --- | --- | --- | --- | --- | --- | --- | --- | --- | --- |
| Nc1ncnc2c1ncn2[C@@H]1O[C@H](COP(=O)(O)OP(=O)(O)O)[C@@H](O)[C@H]1O [ADP] | significantly enriched | 1500 |  |  |  |  |  |  |  |
| CC(C)=CCC/C(C)=C/CC/C(C)=C/COP(=O)(O)OP(=O)(O)O [FPP, farnesyl-pyrophosphate] |  |  | inhibited | 5 | low micromolar range | inhibited | 1 | low micromolar range | neither GPP nor FPP elicited a change |
| CC(C)=CCC/C(C)=C/COP(=O)(O)OP(=O)(O)O [GPP, geranyl-pyrophosphate] | significantly enriched |  | inhibited | 20 |  | inhibited | 5 |  | neither GPP nor FPP elicited a change |
